This is an account of results in US8716326B2, “Isoindolinone derivatives, preparation method thereof and a pharmaceutical composition comprising same” (Korea Research Institute of Chemical Technology, priority 2009, dated 2014).

The experiment deals with Runx2. The experiment in a line: Runx2 activity, 6xOSE2-Luc luciferase reporter in transfected C2C12 cells. The settings on record: 24 hrs; for fold induction at 2.5 µM / fold induction at 5 µM / fold induction at 10 µM / fold induction at 20 µM: Mus musculus, read-out: luciferase activity relative to control set as 1. Format: cell-based, Mouse. As to the method: Mouse premyoblast cell (C2C12 cell) was transfected using receptor vector 6xOSE2-Luc in order to investigate the activity of the amide compound of the present invention on Runx2.
Specifically, the receptor vector 6xOSE2-Luc was prepared by inserting an artificial promoter linked by six tandem copies of the OSE2 (osteoblast specific element-2) into vector pGL3 (Promega; Madison, Wis., U.S.A.), and then, cloned into the C2C12 cell to be transfected (Kim et al., Journal of Cellular Biochemistry, 91: 1239-1247, 2004). The OSE2 is the binding site of Runx2 in the promoter of osteocalcin which is a bone marker.
C2C12 cells (5,000 cells/well) were plated onto 96-well plates using 10% FBS (fetal bovine serum; Hyclone)-containing DMEM (Dulbecco's Modified Eagle's Medium), the medium was replaced with 5% FBS-containing DMEM after 24 hrs, and treated with each of the amide compounds obtained in Examples 1 to 94 at various concentrations of 2.5 μM, 5.0 μM, 10 μM, and 20 μM. As a control, dimethyl sulfoxide (DMSO) vehicle was applied to the cell in an amount same as that of the amide compound. After 24 hrs, the luciferase activity in the cell lysate was measured by using Dual-Luciferase Reporter Assay System (Promega). The luciferase activity of the amide compound of the present invention was calculated as a value relative to that observed for the control which was set as 1.

Consider `Nc1ccc(-c2cccs2)cc1NC(=O)CCCCCN1Cc2c(cccc2-c2cncnc2)C1=O` [Example 47, N-(2-amino-5-(thiophen-2-yl)phenyl)-6-(1-oxo-4-(pyrimidin-5-yl)isoindolin-2-yl)hexanamide], for which the fold induction at 2.5 µM (2.5 μM) came to 1.1. Also, the fold induction at 5 µM (5.0 μM) was 1.2. In addition, the fold induction at 10 µM (10 μM) is 1.3. Besides, the fold induction at 20 µM (20 μM) is 1.6.
For `COc1cc2c(c(-c3cccnc3)c1OC)CN(Cc1ccc(C(=O)Nc3cc(-c4cccs4)ccc3N)cc1)C2=O` [Example 48, N-(2-amino-5-(thiophen-2-yl)phenyl)-4-((5,6-dimethoxy-1-oxo-4-(pyridin-3-yl)isoindolin-2-yl)methyl)benzamide], in that order: 3.7, 7.2, 11.4 and 14.3.
For `O=C(CCCCCN1Cc2cc(-c3ccccc3)ccc2C1=O)NO` [Example 49, N-hydroxy-6-(1-oxo-5-phenylisoindolin-2-yl)hexanamide], the fold induction at 2.5 µM (2.5 μM) is 4.8. In addition, for the setting “5.0 μM”, the fold induction at 5 µM came to 10.6. Besides, the fold induction at 10 µM (10 μM) was found to be 28.1. In addition, the fold induction at 20 µM (20 μM) was 26.5.
For `COc1ccc(-c2ccc3c(c2)CN(CCCCCC(=O)NO)C3=O)c(OC)c1` [Example 50, N-hydroxy-6-(5-(2,4-dimethoxyphenyl)-1-oxoisoindolin-2-yl)hexanamide], in that order: 1.9, 5, 22.1 and 42.7.
The matching figures for `COc1ccc(-c2ccc3c(c2)CN(CCCCCC(=O)NO)C3=O)cc1OC` [Example 51, N-hydroxy-6-(5-(3,4-dimethoxyphenyl)-1-oxoisoindolin-2-yl)hexanamide]: 1.2, 2.1, 10.4 and 26.4.
On to `Cc1cc(C)cc(-c2ccc3c(c2)CN(CCCCCC(=O)NO)C3=O)c1` [Example 52, N-hydroxy-6-(5-(3,5-dimethylphenyl)-1-oxoisoindolin-2-yl)hexanamide], for which the fold induction at 2.5 µM (2.5 μM) is 2.4. For the same compound, the fold induction at 5 µM (5.0 μM) worked out at 4.7. Further, for the setting “10 μM”, the fold induction at 10 µM stood at 12.6. The fold induction at 20 µM (20 μM) amounted to 20.4.
For `O=C(CCCCCN1Cc2cc(-c3cc(F)cc(F)c3)ccc2C1=O)NO` [Example 53, 6-(5-(3,5-difluorophenyl)-1-oxoisoindolin-2-yl)-N-hydroxyhexanamide], in that order: 1.7, 3, 5.6 and 13.3.
For `O=C(CCCCCN1Cc2cc(-c3cccnc3)ccc2C1=O)NO` [Example 54, N-hydroxy-6-(1-oxo-5-(pyridin-3-yl)isoindolin-2-yl)hexanamide], in that order: 1.5, 2.9, 8.9 and 19.8.
The matching figures for `O=C(CCCCCN1Cc2cc(-c3ccc(C(F)(F)F)cc3)ccc2C1=O)NO` [Example 55, 6-(5-(4-(trifluoromethyl)phenyl)-1-oxoisoindolin-2-yl)-N-hydroxyhexanamide]: 2.7, 3.7, 5.5 and 13.3.
As to `Nc1ccccc1NC(=O)c1ccc(CN2Cc3cc(Br)ccc3C2=O)cc1` [Example 56, N-(2-aminophenyl)-4-((5-bromo-1-oxoisoindolin-2-yl)methyl)benzamide], the fold induction at 2.5 µM (2.5 μM) came to 1.1. In addition, under “5.0 μM”, the fold induction at 5 µM was determined as 1.1. The fold induction at 10 µM (10 μM) worked out at 1.1. Further, the fold induction at 20 µM (20 μM) was determined as 1.1.
With `Nc1ccccc1NC(=O)c1ccc(CN2Cc3cc(-c4ccccc4)ccc3C2=O)cc1` [Example 57, N-(2-aminophenyl)-4-((1-oxo-5-phenylisoindolin-2-yl)methyl)benzamide], the fold induction at 2.5 µM (2.5 μM) is 7.3. In addition, the fold induction at 5 µM (5.0 μM) was found to be 8.9. In addition, the fold induction at 10 µM (10 μM) was determined as 10.9. Also, under “20 μM”, the fold induction at 20 µM was 10.7.
The matching figures for `Nc1ccccc1NC(=O)c1ccc(CN2Cc3cc(-c4cncnc4)ccc3C2=O)cc1` [Example 58, N-(2-aminophenyl)-4-((1-oxo-5-(pyrimidin-5-yl)isoindolin-2-yl)methyl)benzamide]: 11.7, 17.1, 21.6 and 21.6.
For `Nc1ccccc1NC(=O)c1ccc(CN2Cc3cc(-c4ccc(C(F)(F)F)cc4)ccc3C2=O)cc1` [Example 59, N-(2-aminophenyl)-4-((5-(4-(trifluoromethyl)phenyl)-1-oxoisoindolin-2-yl)methyl)benzamide], the fold induction at 2.5 µM (2.5 μM) was 3.3. Also, under “5.0 μM”, the fold induction at 5 µM is 4.5. Besides, for the setting “10 μM”, the fold induction at 10 µM is 4.1. The fold induction at 20 µM (20 μM) is 3.8.
As to `Nc1ccccc1NC(=O)c1ccc(CN2Cc3cc(-c4cc(F)cc(F)c4)ccc3C2=O)cc1` [Example 60, N-(2-aminophenyl)-4-((5-(3,5-difluorophenyl)-1-oxoisoindolin-2-yl)methyl)benzamide], for the setting “2.5 μM”, the fold induction at 2.5 µM was found to be 5.4. Under “5.0 μM”, the fold induction at 5 µM stood at 5.9. Further, for the setting “10 μM”, the fold induction at 10 µM was determined as 7. In addition, the fold induction at 20 µM (20 μM) was 8.6.
The matching figures for `Nc1ccccc1NC(=O)c1ccc(CN2Cc3cc(-c4cccnc4)ccc3C2=O)cc1` [Example 61, N-(2-aminophenyl)-4-((1-oxo-5-(pyridin-3-yl)isoindolin-2-yl)methyl)benzamide]: 9.6, 10.6, 14.2 and 15.6.
The matching figures for `Cc1cc(C)cc(-c2ccc3c(c2)CN(Cc2ccc(C(=O)Nc4ccccc4N)cc2)C3=O)c1` [Example 62, N-(2-aminophenyl)-4-((5-(3,5-dimethylphenyl)-1-oxoisoindolin-2-yl)methyl)benzamide]: 4.6, 5.8, 5.5 and 6.6.
In the case of `COc1ccc(-c2ccc3c(c2)CN(Cc2ccc(C(=O)Nc4ccccc4N)cc2)C3=O)cc1` [Example 63], the “luciferase activity relative to control set as 1” value is, setting by setting: (2.5 μM) 8.3 fold; (5.0 μM) 10.3 fold; (10 μM) 13.1 fold; (20 μM) 14.2 fold.
In the case of `COc1ccc(-c2ccc3c(c2)CN(Cc2ccc(C(=O)Nc4ccccc4N)cc2)C3=O)cc1OC` [Example 64, N-(2-aminophenyl)-4-((5-(3,4-dimethoxyphenyl)-1-oxoisoindolin-2-yl)methyl)benzamide], where the note is “2.5 μM”, the fold induction at 2.5 µM was 11.3. For the same compound, the fold induction at 5 µM (5.0 μM) was 10.7. The fold induction at 10 µM (10 μM) came out at 10.1. For the setting “20 μM”, the fold induction at 20 µM was determined as 9.5.
